Data from patent US8952033B2, “4-anilinofuro[2,3-b]quinoline derivatives, their preparation processes, and pharmaceutical compositions comprising the same” (Kaohsiung Medical University, priority 2011, dated 2015).
Converted amounts (≈) assume the structure as drawn. Where two headings read alike, the source gives them in different places.

How the values were obtained:
[1] = Determination of solubility in water; format: physicochemical; settings: for Solubility in water: 25±0.1° C., stirred overnight, UV-VIS
Protocol: Determination of solubility in water was conducted substantially according to the method as described in Vougogiannopoulou, K. et al. (2008), J. Med. Chem., 51:6421-6431. An excess amount of the respective test compound was added into water, followed by sonication for 5 minutes. The resultant mixture was stirred at ambient temperature (25±0.1° C.) overnight. Centrifugation at 4000 rpm and 25° C. was conducted for 5 minutes. Absorbance of the sample of the respective test compound was measured at 315-420 nm using a UV-VIS spectrophotometer (JASCO UV-Visible V570). For each test compound, a standard curve was generated by plotting concentrations of standard solutions and the corresponding absorbances. The absorbance of the sample of each test compound was then converted to solubility in water (μg/mL) using the corresponding standard curve.

[2] = test system: NCI-H460 (non-small cell lung carcinoma cell); test: MTT antiproliferative assay (cell growth %, GI50), NCI-H460; format: cell-based; parameters: Cell growth (%) NCI-H460: unit of the concentration uncertain; settings: for Cell growth (%) NCI-H460 / activity at 4000 µg/mL / activity at 20000 µg/mL: 48 hours, MTT; for SI NCI-H460: GI50 MRC-5 / GI50 NCI-H460; for activity at 4000 µg/mL / activity at 20000 µg/mL / GI50: Homo sapiens; for activity at 4000 µg/mL: 4 mg/ml; for activity at 20000 µg/mL: 20 mg/ml
Protocol: (§1) Antiproliferative activities of the compounds of this invention were evaluated substantially according to the method as described in Tseng, C. […] The cells were treated with the test compounds, i.e., the compounds of this invention (in dimethylsulfoxide (DMSO)), or DMSO for 48 hours.
(§2) Before and after the treatment with the test compounds or DMSO, 3-(4,5-dimethylthiazol-2-yl)-2,5-diphenyltetrazolium bromide (MTT, 2 mg/mL, 100 μL) was added to each of the cultures, followed by cultivation for 2 hours. The resultant formazan was dissolved by the addition of DMSO. Absorbance at 570 nm (OD570) was measured using a microtiter plate reader (Dynex MRX-II).
(§3) Determination of GI50 was conducted thrice for each test compound. GI50 is expressed as mean±SD.

[3] = test system: MCF-7 (breast cancer cell); test: MTT antiproliferative assay (cell growth %, GI50), MCF-7; format: cell-based; parameters: Cell growth (%) MCF-7: unit of the concentration uncertain; settings: for Cell growth (%) MCF-7 / activity at 4000 µg/mL / activity at 20000 µg/mL: 48 hours, MTT; for SI MCF-7: GI50 MRC-5 / GI50 MCF-7; for activity at 4000 µg/mL / activity at 20000 µg/mL / GI50: Homo sapiens; for activity at 4000 µg/mL: 4 mg/ml; for activity at 20000 µg/mL: 20 mg/ml
Protocol: as §1, §2, §3

[4] = test system: SF-268 (central nervous system carcinoma cell); test: MTT antiproliferative assay (cell growth %, GI50), SF-268; format: cell-based; parameters: Cell growth (%) SF-268: unit of the concentration uncertain; settings: for Cell growth (%) SF-268: 48 hours, MTT; for SI SF-268: GI50 MRC-5 / GI50 SF-268; for GI50: Homo sapiens
Protocol: as §1, §2, §3

[5] = test system: MRC-5 (human lung fibroblast cell); test: GI50 determination on normal cell line MRC-5; format: cell-based
Protocol: as §1, §2, §3

[6] = NCI-H460, mean±SD, read-out: GI50 NCI-H460
[7] = MCF7, mean±SD, read-out: GI50 MCF-7
[8] = MRC5, normal cell line, mean±SD, read-out: GI50 MRC-5
[9] = SF-268, mean±SD, read-out: GI50 SF-268

C/C(=N\OCCN)c1ccc(Nc2c3ccccc3nc3occc23)cc1.Cl [Hydrochloride salt of 13a, hydrochloride salt of (E)-1-(4-(furo[2,3-b]quinolin-4-ylamino)phenyl)ethanone O-2-aminoethyl oxime]
Solubility in water [1]: 1049 µg/mL | Solubility in water relative to compound 13a ([1]; fold versus compound 13a): about 17 times

COc1ccc2c(Nc3ccc(/C(C)=N/OCCN(C)C)cc3)c3c(Cl)coc3nc2c1 [Compound 16b, (E)-1-(4-(3-Chloro-7-methoxyfuro[2,3-b]quinolin-4-ylamino)phenyl)ethanone O-2-(dimethylamino) ethyl oxime]
Cell growth (%) NCI-H460 ([2]; 4 (unit uncertain)): 74% | Cell growth (%) NCI-H460 ([2]; 20 (unit uncertain)): −1% | Cell growth (%) MCF-7 ([3]; 4 (unit uncertain)): 51% | Cell growth (%) MCF-7 ([3]; 20 (unit uncertain)): −2% | Cell growth (%) SF-268 ([4]; 4 (unit uncertain)): 102% | Cell growth (%) SF-268 ([4]; 20 (unit uncertain)): −1%

COc1ccc2c(Nc3ccc(/C(C)=N/OCCN)cc3)c3c(Cl)coc3nc2c1 [Compound 16a, (E)-1-(4-(3-Chloro-7-methoxyfuro[2,3-b]quinolin-4-ylamino)phenyl)ethanone O-2-aminoethyl oxime]
SI NCI-H460 [2]: 12.30 | activity at 4000 µg/mL ([2]; NCI-H460): 13% | activity at 20000 µg/mL ([2]; NCI-H460): 3% | GI50 [2, 6]: 3.86 ± 0.13 µM | SI MCF-7 [3]: 1.28 | activity at 4000 µg/mL ([3]; MCF7): 66% | activity at 20000 µg/mL ([3]; MCF7): -1% | GI50 [3, 7]: 36.93 ± 0.31 µM | GI50 [5, 8]: 47.46 ± 0.38 µM | Solubility in water [1]: 17 µg/mL (≈ 40 µM) | SI SF-268 [4]: 6.34 | GI50 [4, 9]: 7.48 ± 0.366 µM

C/C(=N\OCCCN)c1ccc(Nc2c3ccccc3nc3occ(Cl)c23)cc1 [Compound 14c, (E)-1-(4-(3-Chlorofuro[2,3-b]quinolin-4-ylamino)phenyl)ethanone O-3-aminopropyl oxime]
SI NCI-H460 [2]: 2.90 | activity at 4000 µg/mL ([2]; NCI-H460): 28% | activity at 20000 µg/mL ([2]; NCI-H460): 0% | GI50 [2, 6]: 16.2 ± 0.36 µM | SI MCF-7 [3]: 4.98 | activity at 4000 µg/mL ([3]; MCF7): 46% | activity at 20000 µg/mL ([3]; MCF7): 0% | GI50 [3, 7]: 9.46 ± 0.23 µM | GI50 [5, 8]: 47.1 ± 2.27 µM | Solubility in water [1]: 36 µg/mL (≈ 88 µM) | SI SF-268 [4]: 1.46 | GI50 [4, 9]: 32.5 ± 1.25 µM

C/C(=N\OCCCN)c1ccc(Nc2c3ccccc3nc3occc23)cc1 [Compound 13c, (E)-1-(4-(furo[2,3-b]quinolin-4-ylamino)phenyl)ethanone O-3-aminopropyl oxime]
SI NCI-H460 [2]: 6.07 | activity at 4000 µg/mL ([2]; NCI-H460): 22% | activity at 20000 µg/mL ([2]; NCI-H460): -2% | GI50 [2, 6]: 7.08 ± 0.67 µM | SI MCF-7 [3]: 3.73 | activity at 4000 µg/mL ([3]; MCF7): 52% | activity at 20000 µg/mL ([3]; MCF7): -3% | GI50 [3, 7]: 11.52 ± 0.02 µM | GI50 [5, 8]: 43 ± 0.86 µM | Solubility in water [1]: 58 µg/mL (≈ 155 µM) | SI SF-268 [4]: 5.71 | GI50 [4, 9]: 7.53 ± 0.41 µM

COc1ccc2c(Nc3ccc(/C(C)=N/OCCCN(C)C)cc3)c3c(Cl)coc3nc2c1 [Compound 16d, (E)-1-(4-(3-Chloro-7-methoxyfuro[2,3-b]quinolin-4-ylamino)phenyl)ethanone O-3-(dimethylamino) propyl oxime]
Cell growth (%) NCI-H460 ([2]; 4 (unit uncertain)): 66% | Cell growth (%) NCI-H460 ([2]; 20 (unit uncertain)): 4% | Cell growth (%) MCF-7 ([3]; 4 (unit uncertain)): 66% | Cell growth (%) MCF-7 ([3]; 20 (unit uncertain)): 1% | Cell growth (%) SF-268 ([4]; 4 (unit uncertain)): 103% | Cell growth (%) SF-268 ([4]; 20 (unit uncertain)): 1%

CC[C@@]1(O)C(=O)OCc2c1cc1n(c2=O)Cc2cc3ccccc3nc2-1 [camptothecin, reference compound]
SI NCI-H460 [2]: 29.67 | GI50 [2, 6]: 0.03 ± 0.003 µM | SI MCF-7 [3]: 0.08 | GI50 [3, 7]: 11.1 ± 0.61 µM | GI50 [5, 8]: 0.89 ± 0.9 µM | SI SF-268 [4]: 4.68 | GI50 [4, 9]: 0.19 ± 0.006 µM

COc1cccc2c1C(=O)c1c(O)c3c(c(O)c1C2=O)C[C@@](O)(C(C)=O)C[C@@H]3O[C@H]1C[C@H](N)[C@H](O)[C@H](C)O1 [daunorubicin, reference compound]
SI NCI-H460 [2]: 2.32 | GI50 ([2]; NCI-H460, read-out: GI50 NCI-H460): 0.38 ± 0.04 µM | SI MCF-7 [3]: 0.17 | GI50 ([3]; MCF7, read-out: GI50 MCF-7): 5.03 ± 0.05 µM | GI50 ([5]; MRC5, read-out: GI50 MRC-5): 0.88 ± 0.11 µM | SI SF-268 [4]: 1.47 | GI50 ([4]; SF-268, read-out: GI50 SF-268): 0.6 ± 0.02 µM
